Assay results taken from patent publication US20240150377A1, “MODULATORS OF CYSTIC FIBROSIS TRANSMEMBRANE CONDUCTANCE REGULATOR” (VERTEX PHARMACEUTICALS INCORPORATED, priority 2020, published 2024).

Molecular target: T1, CFTR (Homo sapiens, UniProt P13569, DEL508-508)
T1 construct: endogenous in cells; host or cells: primary human bronchial epithelial cells from CF subjects (F508del/MF-HBE), differentiated at air-liquid interface
Assay: HBE2 assay: Ussing chamber assay of CFTR-mediated short-circuit currents
Format: cell-based
Settings: F508del/MF-HBE cells, 18-24 hours, 20% human serum; for Emax: read-out: HBE2 Max activity (%)
Method in brief: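 F508del/MF-HBE cultured >14 days at air-liquid interface, mounted in Ussing chambers; transepithelial short-circuit current recorded under voltage clamp (Vhold=0 mV) at 37 °C. CFTR-mediated ISC (μA/cm^2) taken as peak forskolin response relative to steady-state current after inhibition; corrector activity assessed this way.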

[1] = 3 μM corrector, with 44 nM potentiator

T1 sequence (P13569 with tags, fused parts or gaps DEL508-508): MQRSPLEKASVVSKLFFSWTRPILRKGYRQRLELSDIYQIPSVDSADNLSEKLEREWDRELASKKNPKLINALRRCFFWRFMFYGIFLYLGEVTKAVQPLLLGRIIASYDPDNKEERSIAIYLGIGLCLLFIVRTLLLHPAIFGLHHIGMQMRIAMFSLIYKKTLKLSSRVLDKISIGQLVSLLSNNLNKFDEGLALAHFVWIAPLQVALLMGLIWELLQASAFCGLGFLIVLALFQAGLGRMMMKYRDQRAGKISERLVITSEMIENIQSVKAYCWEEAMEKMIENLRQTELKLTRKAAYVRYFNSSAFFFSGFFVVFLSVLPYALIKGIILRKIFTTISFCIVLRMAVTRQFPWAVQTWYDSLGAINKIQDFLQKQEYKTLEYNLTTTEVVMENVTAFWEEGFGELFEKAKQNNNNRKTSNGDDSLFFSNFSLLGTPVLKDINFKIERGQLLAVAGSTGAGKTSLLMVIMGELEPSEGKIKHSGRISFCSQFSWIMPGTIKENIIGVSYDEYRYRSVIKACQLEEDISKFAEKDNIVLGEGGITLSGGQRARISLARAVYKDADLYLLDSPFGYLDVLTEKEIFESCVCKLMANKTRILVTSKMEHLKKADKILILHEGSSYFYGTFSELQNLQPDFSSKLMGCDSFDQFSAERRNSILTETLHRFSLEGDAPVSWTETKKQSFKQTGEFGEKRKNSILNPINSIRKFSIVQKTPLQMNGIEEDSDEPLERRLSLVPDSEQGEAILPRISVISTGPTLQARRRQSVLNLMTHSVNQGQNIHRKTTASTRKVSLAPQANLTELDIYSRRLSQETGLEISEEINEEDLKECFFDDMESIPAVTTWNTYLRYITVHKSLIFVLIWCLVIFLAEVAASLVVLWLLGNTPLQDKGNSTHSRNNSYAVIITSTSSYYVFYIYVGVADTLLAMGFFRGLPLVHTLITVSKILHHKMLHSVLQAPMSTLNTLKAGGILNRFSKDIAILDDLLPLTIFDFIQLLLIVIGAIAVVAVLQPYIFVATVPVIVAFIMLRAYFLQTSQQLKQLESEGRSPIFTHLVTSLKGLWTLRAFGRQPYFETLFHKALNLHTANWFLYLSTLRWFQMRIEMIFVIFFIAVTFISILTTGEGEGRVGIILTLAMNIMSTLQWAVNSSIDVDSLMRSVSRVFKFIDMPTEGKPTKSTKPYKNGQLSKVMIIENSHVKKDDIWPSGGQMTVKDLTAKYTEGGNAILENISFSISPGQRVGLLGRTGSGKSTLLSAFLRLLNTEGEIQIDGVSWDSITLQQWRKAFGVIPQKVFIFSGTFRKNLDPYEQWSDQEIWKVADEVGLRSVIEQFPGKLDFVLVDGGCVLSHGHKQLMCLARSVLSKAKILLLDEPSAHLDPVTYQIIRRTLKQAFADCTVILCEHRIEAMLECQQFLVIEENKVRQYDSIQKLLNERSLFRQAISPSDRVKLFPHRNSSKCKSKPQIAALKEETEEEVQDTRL

Row | HBE2 Activity at 3 μM (%) [1] | HBE2 Activity at 3 μM (%) (3 μM, with 44 nM potentiator) | SMILES | further results
1 | +++ (+++ is >60+) |  | Cc1cccc(C)c1-c1cc2nc(n1)NS(=O)(=O)c1cccc(c1)C(=O)N(Cc1ncc(N3CCC(C)(C)C3)cn1)[C@H](COC(C)C)CO2 [Compound 1955] | 
2 | +++ (+++ is >60+) |  | CO[C@H](C)[C@@H]1CCCN1c1cncc(CN2C(=O)c3cccc(c3)S(=O)(=O)Nc3nc(cc(-c4c(C)cccc4C)n3)OC[C@H]2CCC(C)(C)C)n1 [Compound 1935] | 
3 |  | +++ (+++ is >60+) | Cc1cccc(C)c1-c1cc2nc(n1)NS(=O)(=O)c1cccc(c1)C(=O)N(Cc1ncc(OC3CCC3)cn1)[C@H](CC1(C)CC1)CO2 [Compound 1576] | 
4 |  | +++ (+++ is >60+) | Cc1cccc(C)c1-c1cc2nc(n1)NS(=O)(=O)c1cccc(c1)C(=O)N(Cc1cccc(N3CCC[C@@]3(C)CO)n1)[C@H](CC(C)(C)C)CO2 (stereo in doubt) [Compound 1585] | 
5 |  | +++ (+++ is >60+) | Cc1cccc(C)c1-c1cc2nc(n1)NS(=O)(=O)c1cccc(c1)C(=O)N(Cc1cnc(N(C)C3CCC3)cn1)[C@H](CC(C)(C)C)CO2 [Compound 1612] | 
6 |  | +++ (+++ is >60+) | CCOc1cnc(CN2C(=O)c3cccc(c3)S(=O)(=O)Nc3nc(cc(-c4c(C)cccc4C)n3)OC[C@H]2CCC2CC2)nc1 [Compound 1596] | 
7 |  | +++ (+++ is >60+) | Cc1cccc(C)c1-c1cc2nc(n1)NS(=O)(=O)c1cccc(c1)C(=O)N(Cc1cncc(N3CCC[C@H]4CC[C@H]43)n1)[C@H](CC(C)(C)C)CO2 (single isomer, unassigned) [Compound 1315] | EC50 (with 44 nM potentiator): < 1000 nM; Emax (with 44 nM potentiator): > 60%
8 |  | +++ (+++ is >60+) | Cc1cccc(C)c1-c1cc2nc(n1)NS(=O)(=O)c1cccc(c1)C(=O)N(Cc1ncc(OC(C)C)cn1)[C@H](CCC1CC1)CO2 [Compound 1597] | 
9 | +++ (+++ is >60+) |  | Cc1cccc(C)c1-c1cc2nc(n1)NS(=O)(=O)c1cccc(c1)C(=O)N(Cc1cncc(N3CC[C@H]3C)n1)[C@H](CC1CCCCC1)CO2 [Compound 1823] | 
10 | +++ (+++ is >60+) |  | Cc1cccc(C)c1-c1cc2nc(n1)NS(=O)(=O)c1cccc(c1)C(=O)N(Cc1cncc(N(C)C3CC(F)(F)C3)n1)[C@H](CCC(C)(C)C)CO2 [Compound 1815] | 
11 | +++ (+++ is >60+) |  | Cc1cccc(C)c1-c1cc2nc(n1)NS(=O)(=O)c1cccc(c1)C(=O)N(Cc1cncc(N3CCCO[C@H]4CC[C@H]43)n1)[C@H](CC(C)(C)C)CO2 (stereo in doubt) [Compound 1952] | 
12 | ++ (++ is 30-60%) |  | CCC(C)(C)C[C@@H]1COc2cc(-c3c(C)cccc3C)nc(n2)NS(=O)(=O)c2cccc(c2)C(=O)N1Cc1cncc(N2CCCC[C@H]2C)n1 [Compound 1862] | 
13 | +++ (+++ is >60+) |  | Cc1cccc(C)c1-c1cc2nc(n1)NS(=O)(=O)c1cccc(c1)C(=O)N(Cc1cncc(N(C)C3CCC3)n1)[C@@H]1CCN(CCC(C)(C)C)C[C@H]1O2 [Compound 1766] | 
14 | +++ (+++ is >60+) |  | CCN(C)c1cncc(CN2C(=O)c3cccc(c3)S(=O)(=O)Nc3nc(cc(-c4c(C)cccc4C)n3)OC[C@H]2CCC(C)(C)C)n1 [Compound 1807] | 
15 | +++ (+++ is >60+) |  | CC[C@@H]1CCCN1c1cncc(CN2C(=O)c3cccc(c3)S(=O)(=O)Nc3nc(cc(-c4c(C)cccc4C)n3)OC[C@H]2CCC(C)(C)C)n1 [Compound 1816] | 
16 | +++ (+++ is >60+) |  | Cc1cccc(C)c1-c1cc2nc(n1)NS(=O)(=O)c1cccc(c1)C(=O)N(Cc1cncc(N3CCCC4CCC43)n1)[C@H](CCC(C)(C)C)CO2 (stereo in doubt) [Compound 1781] | 
17 | +++ (+++ is >60+) |  | Cc1cccc(C)c1-c1cc2nc(n1)NS(=O)(=O)c1cccc(c1)C(=O)N(Cc1cncc(N3CCC[C@H]3C(C)C)n1)[C@H](COC1CC1)CO2 [Compound 1341, (11R)-11-(Cyclopropoxymethyl)-6-(2,6-dimethylphenyl)-12-[[6-[(2S)-2-isopropylpyrrolidin-1-yl]pyrazin-2-yl]methyl]-2,2-dioxo-9-oxa-2^6-thia-3,5,12,19-tetrazatricyclo[12.3.1.14,8]nonadeca-1(18),4(19),5,7,14,16-hexaen-13-one] | 
18 | +++ (+++ is >60+) |  | Cc1cccc(C)c1-c1cc2nc(n1)NS(=O)(=O)c1cccc(c1)C(=O)N(Cc1cncc(N3CCC[C@H]3C)n1)[C@H](CC1CC(C)(C)C1)CO2 [Compound 1899] | 
19 | +++ (+++ is >60+) |  | Cc1cccc(C)c1-c1cc2nc(n1)NS(=O)(=O)c1cccc(c1)C(=O)N(Cc1cncc(N3CCC[C@@H]4CC[C@@H]43)n1)[C@H](CCC(C)C)CO2 [Compound 1747] | 
20 | +++ (+++ is >60+) |  | Cc1cccc(C)c1-c1cc2nc(n1)NS(=O)(=O)c1cccc(c1)C(=O)N(Cc1cncc(N(C)[C@H]3C[C@@H](F)C3)n1)[C@H](CCC(C)(C)C)CO2 [Compound 1848] | 
21 |  | + (+ is <300)) | Cc1cccc(C)c1-c1cc2nc(n1)NS(=O)(=O)c1cccc(c1)C(=O)N(Cc1ncc(OC(C)C)cn1)[C@H](CC1CCC1)[C@@H](C)O2 [Compound 1566] | 

Row | HBE2 Activity at 3 μM (%) [1] | HBE2 Activity at 3 μM (%) (3 μM, with 44 nM potentiator) | SMILES | further results
22 | +++ (+++ is >60+) |  | Cc1cccc(C)c1-c1cc2nc(n1)NS(=O)(=O)c1cccc(c1)C(=O)N(Cc1cncc(N3CCCC4CCC43)n1)[C@H](CC1(C)CCC1)CO2 (stereo partly shown) [Compound 1793] | 
23 |  | +++ (+++ is >60+) | Cc1cccc(C)c1-c1cc2nc(n1)NS(=O)(=O)c1cccc(c1)C(=O)N(Cc1coc(N(C)CC3CCC3)n1)[C@H](CC(C)(C)C)CO2 [Compound 1646] | 
24 | +++ (+++ is >60+) |  | Cc1cccc(C)c1-c1cc2nc(n1)NS(=O)(=O)c1cccc(c1)C(=O)N(Cc1cncc(N3CCCC[C@H]3C)n1)[C@H](CC1CC(C)(C)C1)CO2 [Compound 1901] | 
25 |  |  | CO[C@@H]1CC[C@@H]1N(C)c1cncc(CN2C(=O)c3cccc(c3)S(=O)(=O)Nc3nc(cc(-c4c(C)cccc4C)n3)OC[C@H]2CC(C)(C)C)n1 (stereo in doubt) [Compound 1610] | EC50 (with 44 nM potentiator): < 1000 nM; Emax (with 44 nM potentiator): > 60%
26 |  | +++ (+++ is >60+) | Cc1cccc(C)c1-c1cc2nc(n1)NS(=O)(=O)c1cccc(c1)C(=O)N(Cc1cncc(N3C[C@H]4CCC[C@H]43)n1)[C@H](CC(C)(C)C)CO2 [Compound 1708] | 
27 |  | +++ (+++ is >60+) | Cc1cccc(C)c1-c1cc2nc(n1)NS(=O)(=O)c1cccc(c1)C(=O)N(Cc1nccc(N3CC[C@H]3C)n1)[C@H](CC(C)(C)C)CO2 [Compound 1552] | 
28 |  | +++ (+++ is >60+) | COCC1CC2(CCN2c2cncc(CN3C(=O)c4cccc(c4)S(=O)(=O)Nc4nc(cc(-c5c(C)cccc5C)n4)OC[C@H]3CC(C)(C)C)n2)C1 (stereo partly shown) [Compound 1706] | 
29 | +++ (+++ is >60+) |  | CCN(c1cncc(CN2C(=O)c3cccc(c3)S(=O)(=O)Nc3nc(cc(-c4c(C)cccc4C)n3)OC[C@H]2COC2CC2)n1)C1CCC1 [Compound 1925] | 
30 | +++ (+++ is >60+) |  | Cc1cccc(C)c1-c1cc2nc(n1)NS(=O)(=O)c1cccc(c1)C(=O)N(Cc1cncc(N3[C@H](C)CC[C@@H]3C)n1)[C@H](CCC(C)(C)C)CO2 [Compound 1917] | 
31 | +++ (+++ is >60+) |  | Cc1cccc(C)c1-c1cc2nc(n1)NS(=O)(=O)c1cccc(c1)C(=O)N(Cc1cncc(N3CC[C@H]3C)n1)[C@H](CCC(C)(C)C)CO2 [Compound 1726] | EC50 (corrector at a range of concentrations with 44 nM potentiator): < 1000 nM; Emax (with 44 nM potentiator): > 60%
32 |  | +++ (+++ is >60+) | Cc1cccc(C)c1-c1cc2nc(n1)NS(=O)(=O)c1cccc(c1)C(=O)N(Cc1cncc(N3CC[C@H]4C3CC(=O)N4C)n1)[C@H](CC(C)(C)C)CO2 (stereo in doubt) [Compound 1640] | 
33 |  | +++ (+++ is >60+) | Cc1cccc(C)c1-c1cc2nc(n1)NS(=O)(=O)c1cccc(c1)C(=O)N(Cc1cncc(OC3CCC3)n1)[C@H](CC(C)(C)C)CO2 [Compound 1601] | 
34 | +++ (+++ is >60+) |  | CCN(c1cncc(CN2C(=O)c3cccc(c3)S(=O)(=O)Nc3nc(cc(-c4c(C)cccc4C)n3)OC[C@H]2CCC(C)(C)C)n1)C(C)C [Compound 1850] | 
35 | +++ (+++ is >60+) |  | Cc1cccc(C)c1-c1cc2nc(n1)NS(=O)(=O)c1cccc(c1)C(=O)N(Cc1cncc(C3CCCCO3)n1)[C@H](CCC(C)(C)C)CO2 (stereo in doubt) [Compound 1881] | 
36 | +++ (+++ is >60+) |  | Cc1cccc(C)c1-c1cc2nc(n1)NS(=O)(=O)c1cccc(c1)C(=O)N(Cc1cncc(N3CCC(C)(C)[C@H]3C)n1)[C@H](CC(C)(C)C)CO2 (stereo in doubt) [Compound 1723] | 
37 | +++ (+++ is >60+) |  | Cc1cccc(C)c1-c1cc2nc(n1)NS(=O)(=O)c1cccc(c1)C(=O)N(Cc1cc(N)cc(N(C)C3CCC3)n1)[C@H](CC(C)(C)C)CO2 [Compound 1928] | 
38 | +++ (+++ is >60+) |  | Cc1cccc(C)c1-c1cc2nc(n1)NS(=O)(=O)c1cccc(c1)C(=O)N(Cc1cncc(N(C)C3CCC3C)n1)[C@H](CC(C)(C)C)CO2 (stereo partly shown) [Compound 1785] | 
39 | +++ (+++ is >60+) |  | Cc1cccc(C)c1-c1cc2nc(n1)NS(=O)(=O)c1cccc(c1)C(=O)N(Cc1cncc(N(C)C3CCC3)c1)[C@H](CC(C)(C)C)CO2 [Compound 1927] | 
40 | +++ (+++ is >60+) |  | Cc1cccc(C)c1-c1cc2nc(n1)NS(=O)(=O)c1cccc(c1)C(=O)N(Cc1cncc(N3CCC[C@H]3C)n1)[C@H](CC1(C)CCC1)CO2 [Compound 1743] | 
41 | +++ (+++ is >60+) |  | Cc1cccc(C)c1-c1cc2nc(n1)NS(=O)(=O)c1cccc(c1)C(=O)N(Cc1cncc(N(C)C3CCC3)n1)[C@H](C(C)(C)C)CO2 [Compound 1732] | 
